Experimental data: patent publication US12522601B2, “1,3,4-oxadiazole derivative compounds as histone deacetylase 6 inhibitor, and the pharmaceutical composition comprising the same” (CHONG KUN DANG PHARMACEUTICAL CORP., priority 2020, dated 2026)

Key:
[1] = target: T1, human recombinant HDAC1 (Homo sapiens, UniProt Q13547); assay: In vitro HDAC enzyme activity inhibition assay, HDAC1 (HDAC Fluorimetric Drug Discovery Kit); type: biochemical; settings: human recombinant HDAC1, Fluor de Lys-SIRT1 substrate 10 μM, 30° C. for 60 minutes
T1 construct: purchased Enzo Life Sciences, Inc. BML-SE456
T1 sequence (Q13547 whole entry): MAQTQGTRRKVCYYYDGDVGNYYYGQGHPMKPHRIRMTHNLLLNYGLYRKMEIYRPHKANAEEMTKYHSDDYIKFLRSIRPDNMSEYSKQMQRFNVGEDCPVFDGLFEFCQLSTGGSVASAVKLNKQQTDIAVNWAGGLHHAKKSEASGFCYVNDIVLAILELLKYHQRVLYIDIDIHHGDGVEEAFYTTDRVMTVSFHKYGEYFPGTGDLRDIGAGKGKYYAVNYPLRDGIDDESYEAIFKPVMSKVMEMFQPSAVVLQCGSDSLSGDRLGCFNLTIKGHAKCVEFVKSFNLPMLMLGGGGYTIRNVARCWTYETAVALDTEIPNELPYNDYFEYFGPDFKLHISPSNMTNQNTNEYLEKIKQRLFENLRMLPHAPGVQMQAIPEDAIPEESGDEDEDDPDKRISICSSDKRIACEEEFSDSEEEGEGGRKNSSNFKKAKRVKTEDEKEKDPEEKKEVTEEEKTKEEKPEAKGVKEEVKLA
Summary of the method: (§1)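 Both HDAC1 and HDAC6 (human recombinant, 0.3 μg) tested identically: 10 μM fluorogenic Fluor de Lys-SIRT1 substrate, reaction 60 min at 30° C, developer added for 30 min. IC50 calculated from Ex 360/Em 460 signal over 5-fold serial dilutions.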

[2] = target: T2, human recombinant HDAC6 (Homo sapiens, UniProt Q9UBN7); assay: In vitro HDAC enzyme activity inhibition assay, HDAC6 (HDAC Fluorimetric Drug Discovery Kit); type: biochemical; settings: for HDAC6 Selectivity (fold): HDAC6 versus HDAC1; for IC50: human recombinant HDAC6, same protocol as the HDAC1 test
T2 construct: purchased Calbiochem Inc. 382180
T2 sequence (Q9UBN7 1-1215): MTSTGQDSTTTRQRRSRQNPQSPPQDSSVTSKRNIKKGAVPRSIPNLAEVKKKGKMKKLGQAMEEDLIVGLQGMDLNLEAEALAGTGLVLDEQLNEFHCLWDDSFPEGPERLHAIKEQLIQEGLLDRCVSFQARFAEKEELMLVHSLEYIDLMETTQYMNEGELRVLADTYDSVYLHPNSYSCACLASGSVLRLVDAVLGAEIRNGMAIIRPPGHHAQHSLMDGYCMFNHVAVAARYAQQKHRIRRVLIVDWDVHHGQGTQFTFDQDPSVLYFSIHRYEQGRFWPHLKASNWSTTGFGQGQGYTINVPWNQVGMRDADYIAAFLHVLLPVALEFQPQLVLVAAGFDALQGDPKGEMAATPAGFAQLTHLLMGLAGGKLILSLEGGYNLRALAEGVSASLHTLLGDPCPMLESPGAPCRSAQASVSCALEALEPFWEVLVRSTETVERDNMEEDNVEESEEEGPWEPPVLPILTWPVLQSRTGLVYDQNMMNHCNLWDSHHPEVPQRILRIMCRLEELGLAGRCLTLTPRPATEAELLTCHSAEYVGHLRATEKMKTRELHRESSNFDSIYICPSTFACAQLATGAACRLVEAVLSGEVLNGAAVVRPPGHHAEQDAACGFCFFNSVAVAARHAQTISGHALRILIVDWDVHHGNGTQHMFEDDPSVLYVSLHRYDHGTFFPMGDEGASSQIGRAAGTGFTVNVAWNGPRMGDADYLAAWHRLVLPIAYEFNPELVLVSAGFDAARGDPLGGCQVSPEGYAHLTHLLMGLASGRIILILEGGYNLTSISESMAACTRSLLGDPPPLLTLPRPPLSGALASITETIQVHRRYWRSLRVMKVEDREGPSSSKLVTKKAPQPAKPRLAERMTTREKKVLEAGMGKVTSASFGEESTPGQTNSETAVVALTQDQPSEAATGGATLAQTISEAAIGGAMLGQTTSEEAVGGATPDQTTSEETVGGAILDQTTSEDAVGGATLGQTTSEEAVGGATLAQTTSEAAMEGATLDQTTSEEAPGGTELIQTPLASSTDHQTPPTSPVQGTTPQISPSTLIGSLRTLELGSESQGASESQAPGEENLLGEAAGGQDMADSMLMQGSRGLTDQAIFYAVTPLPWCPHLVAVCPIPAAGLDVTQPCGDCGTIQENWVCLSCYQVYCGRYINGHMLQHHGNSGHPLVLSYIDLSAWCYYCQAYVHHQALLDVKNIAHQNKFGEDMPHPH
Summary of the method: as §1

## CC(CO)N1CC(C(=O)N(Cc2cn3ccc(-c4nnc(C(F)F)o4)cc3n2)c2cccc(F)c2)C1 (stereo not drawn) [Compound 4191, N-((7-(5-(difluoromethyl)-1,3,4-oxadiazol-2-yl)imidazo[1,2-a]pyridin-2-yl)methyl)-N-(3-fluorophenyl)-1-(1-hydroxypropan-2-yl) azetidine-3-carboxamide]
[1]
  IC50: > 50000 nM
[2]
  HDAC6 Selectivity (fold): 373 fold
  IC50: 134 nM

## O=C(C1CN(C2CCC2)C1)N(Cc1cn2ccc(-c3nnc(C(F)F)o3)cc2n1)c1cccc(F)c1 [Compound 4192, 1-cyclobutyl-N-((7-(5-(difluoromethyl)-1,3,4-oxadiazol-2-yl)imidazo[1,2-a]pyridin-2-yl)methyl)-N-(3-fluorophenyl) azetidine-3-carboxamide]
[1]
  IC50: > 50000 nM
[2]
  HDAC6 Selectivity (fold): 452 fold
  IC50: 111 nM

## O=C(C1CN(C2COC2)C1)N(Cc1cn2ccc(-c3nnc(C(F)F)o3)cc2n1)c1cccc(F)c1 [Compound 4193, N-((7-(5-(difluoromethyl)-1,3,4-oxadiazol-2-yl)imidazo[1,2-a]pyridin-2-yl)methyl)-N-(3-fluorophenyl)-1-(oxetan-3-yl) azetidine-3-carboxamide]
[1]
  IC50: > 50000 nM
[2]
  HDAC6 Selectivity (fold): 361 fold
  IC50: 139 nM

## O=C(C1CN(C2CCCCC2)C1)N(Cc1cn2ccc(-c3nnc(C(F)F)o3)cc2n1)c1cccc(F)c1 [Compound 4194, 1-cyclohexyl-N-((7-(5-(difluoromethyl)-1,3,4-oxadiazol-2-yl)imidazo[1,2-a]pyridin-2-yl)methyl)-N-(3-fluorophenyl) azetidine-3-carboxamide]
[1]
  IC50: > 50000 nM
[2]
  HDAC6 Selectivity (fold): 379 fold
  IC50: 132 nM

## O=C(C1CN(C2CCOCC2)C1)N(Cc1cn2ccc(-c3nnc(C(F)F)o3)cc2n1)c1cccc(F)c1 [Compound 4195, N-((7-(5-(difluoromethyl)-1,3,4-oxadiazol-2-yl)imidazo[1,2-a]pyridin-2-yl)methyl)-N-(3-fluorophenyl)-1-(tetrahydro-2H-pyran-4-yl) azetidine-3-carboxamide]
[1]
  IC50: > 50000 nM
[2]
  HDAC6 Selectivity (fold): 261 fold
  IC50: 192 nM

## O=C(C1CN(C2CCC(F)(F)CC2)C1)N(Cc1cn2ccc(-c3nnc(C(F)F)o3)cc2n1)c1cccc(F)c1 [Compound 4196, 1-(4,4-Difluorocyclohexyl)-N-((7-(5-(difluoromethyl)-1,3,4-oxadiazol-2-yl)imidazo[1,2-a]pyridin-2-yl)methyl)-N-(3-fluorophenyl) azetidine-3-carboxamide]
[1]
  IC50: > 50000 nM
[2]
  HDAC6 Selectivity (fold): 276 fold
  IC50: 181 nM

## CC(=O)N1CC(C(=O)N(Cc2cn3ccc(-c4nnc(C(F)F)o4)cc3n2)c2cccc(F)c2)C1 [Compound 4197, 1-acetyl-N-((7-(5-(difluoromethyl)-1,3,4-oxadiazol-2-yl)imidazo[1,2-a]pyridine-2-yl)methyl)-N-(3-fluorophenyl) azetidine-3-carboxamide]
[1]
  IC50: > 50000 nM
[2]
  HDAC6 Selectivity (fold): 207 fold
  IC50: 242 nM

## CCC(=O)N1CC(C(=O)N(Cc2cn3ccc(-c4nnc(C(F)F)o4)cc3n2)c2cccc(F)c2)C1 [Compound 4198]
[1]
  IC50: > 50000 nM
[2]
  HDAC6 Selectivity (fold): 271 fold
  IC50: 185 nM

## O=C(CO)N1CC(C(=O)N(Cc2cn3ccc(-c4nnc(C(F)F)o4)cc3n2)c2cccc(F)c2)C1 [Compound 4199, N-((7-(5-(difluoromethyl)-1,3,4-oxadiazol-2-yl)imidazo[1,2-a]pyridin-2-yl)methyl)-N-(3-fluorophenyl)-1-(2-hydroxyacetyl) azetidine-3-carboxamide]
[1]
  IC50: > 50000 nM
[2]
  HDAC6 Selectivity (fold): 200 fold
  IC50: 250 nM

## O=C(C1CCC1)N1CC(C(=O)N(Cc2cn3ccc(-c4nnc(C(F)F)o4)cc3n2)c2cccc(F)c2)C1 [Compound 4200, 1-(cyclobutanecarbonyl)-N-((7-(5-(difluoromethyl)-1,3,4-oxadiazol-2-yl)imidazo[1,2-a]pyridine-2-yl)methyl)-N-(3-fluorophenyl) azetidine-3-carboxamide]
[1]
  IC50: > 50000 nM
[2]
  HDAC6 Selectivity (fold): 228 fold
  IC50: 220 nM

## O=C(C1COC1)N1CC(C(=O)N(Cc2cn3ccc(-c4nnc(C(F)F)o4)cc3n2)c2cccc(F)c2)C1 [Compound 4201, N-((7-(5-(difluoromethyl)-1,3,4-oxadiazol-2-yl)imidazo[1,2-a]pyridin-2-yl)methyl)-N-(3-fluorophenyl)-1-(oxetane-3-carbonyl) azetidine-3-carboxamide]
[1]
  IC50: > 50000 nM
[2]
  HDAC6 Selectivity (fold): 177 fold
  IC50: 283 nM

## O=C(C1CN(C(=O)C(F)(F)F)C1)N(Cc1cn2ccc(-c3nnc(C(F)F)o3)cc2n1)c1cccc(F)c1 [Compound 4202, N-((7-(5-(difluoromethyl)-1,3,4-oxadiazol-2-yl)imidazo[1,2-a]pyridin-2-yl)methyl)-N-(3-fluorophenyl)-1-(2,2,2-trifluoroacetyl) azetidine-3-carboxamide]
[1]
  IC50: > 50000 nM
[2]
  HDAC6 Selectivity (fold): 274 fold
  IC50: 182 nM

## CS(=O)(=O)N1CC(C(=O)N(Cc2cn3ccc(-c4nnc(C(F)F)o4)cc3n2)c2cccc(F)c2)C1 [Compound 4203, N-((7-(5-(difluoromethyl)-1,3,4-oxadiazol-2-yl)imidazo[1,2-a]pyridin-2-yl)methyl)-N-(3-fluorophenyl)-1-(methylsulfonyl) azetidine-3-carboxamide]
[1]
  IC50: > 50000 nM
[2]
  HDAC6 Selectivity (fold): 295 fold
  IC50: 170 nM

## COC(=O)N1CC(C(=O)N(Cc2cn3ccc(-c4nnc(C(F)F)o4)cc3n2)c2cccc(F)c2)C1 [Compound 4204, methyl 3-(((7-(5-(difluoromethyl)-1,3,4-oxadiazol-2-yl)imidazo[1,2-a]pyridin-2-yl)methyl)(3-fluorophenyl)carbamoyl) azetidine-1-carboxylate]
[1]
  IC50: > 50000 nM
[2]
  HDAC6 Selectivity (fold): 268 fold
  IC50: 187 nM

## CN(C)C(=O)N1CC(C(=O)N(Cc2cn3ccc(-c4nnc(C(F)F)o4)cc3n2)c2cccc(F)c2)C1 [Compound 4205, N3-((7-(5-(difluoromethyl)-1,3,4-oxadiazol-2-yl)imidazo[1,2-a]pyridin-2-yl)methyl)-N3-(3-fluorophenyl)-N1,N1-dimethylazetidine-1,3-dicarboxamide]
[1]
  IC50: > 50000 nM
[2]
  HDAC6 Selectivity (fold): 348 fold
  IC50: 144 nM

## O=C(C1CN(c2ccccn2)C1)N(Cc1cn2ccc(-c3nnc(C(F)F)o3)cc2n1)c1cccc(F)c1 [Compound 4206, N-((7-(5-(difluoromethyl)-1,3,4-oxadiazol-2-yl)imidazo[1,2-a]pyridin-2-yl)methyl)-N-(3-fluorophenyl)-1-(pyridin-2-yl) azetidine-3-carboxamide]
[1]
  IC50: > 50000 nM
[2]
  HDAC6 Selectivity (fold): 361 fold
  IC50: 138 nM

## O=C(C1CN(c2ncccn2)C1)N(Cc1cn2ccc(-c3nnc(C(F)F)o3)cc2n1)c1cccc(F)c1 [Compound 4207, N-((7-(5-(difluoromethyl)-1,3,4-oxadiazol-2-yl)imidazo[1,2-a]pyridin-2-yl)methyl)-N-(3-fluorophenyl)-1-(pyrimidin-2-yl) azetidine-3-carboxamide]
[1]
  IC50: > 50000 nM
[2]
  HDAC6 Selectivity (fold): 298 fold
  IC50: 168 nM
